Experimental data published in patent US8895079B2, “Combinations of botanical extracts for promoting cardiovascular health” (National Research Council of Canada, priority 2005, dated 2014).
Marks after values point to notes of the source that are not given here.

Key:
intestinal ABCG8 mRNA = assay: Example 1: intestinal ABCG8 mRNA expression, real-time PCR; assay type: in vivo, Male Golden Syrian hamsters; details: intestine; relative expression in reference to a housekeeping gene; Example 1, 4 weeks
Description: Experiments were also conducted to determine the effect on the expression of genes associated with cholesterol in the liver and intestine. Total RNA was extracted and mRNA was converted to cDNA. The mRNA expression was measured by real-time PCR with four repeats and calculated as relative expression in reference to internal control of a housekeeping gene for each sample. […] The function of ABCG5 and ABCG8 in the intestine is to transport cholesterol out of enterocytes and back to the intestine for elimination via the feces. […] The observation of our study (Example 1) has provided a strong support to the synergistic action of BBRCI and PS on cholesterol reduction.

[1] = tested on: hamsters fed a diet containing 0.25% cholesterol; assay: Example 3: five week hamster study, blood lipid levels, 0.25% cholesterol diet, 0.5% PS; assay type: in vivo, male Golden Syrian hamsters; details: BBRCI 100 mg/kg·d and/or PS 0.5% (w/w)
Description: In this example, a controlled, five week animal study was performed. Four randomized groups of 12 or 6 male Golden Syrian hamsters were fed isocaloric diets as follows. The dosage of PS was reduced from 1% to 0.5% (w/w) in the diet. Hamster husbandry, living and feeding conditions were similar to that in Example 1. • Control a semi-synthetic casein-corn starch-sucrose diet that contained 0.25% (w/w) cholesterol • BBRCI control diet containing 100 mg/kg·d of BBRCI • PS control diet containing 0.5% (w/w) PS • BBRCI+PS control diet containing 100 mg/kg·d BBRCI and 0.5% (w/w) PS One objective of this example was to determine the effects of each intervention on circulating blood lipids including total cholesterol (T-C), high-density-lipoprotein cholesterol (HDL-C), nonHDL-C (which is indicative of LDL-C levels) and triglyceride (TG) profiles. Table 8 summarizes the effect on blood lipid levels (values are means±SD, n=12). Data were analyzed by one-way ANOVA followed by Tukey test if significance was detected. A significant difference was indicated by a p<0.05. […] When BBRCI and PS were given to hamsters simultaneously, significant synergistic actions were observed on […] and TG levels. A synergistic action of BBRCI and PS was also observed on the ratio of HDL-C and nonHDL-C.

liver CYP7A1 mRNA = assay: Example 1: liver CYP7A1 mRNA expression, real-time PCR; assay type: in vivo, Male Golden Syrian hamsters; details: relative expression in reference to a housekeeping gene, Example 1, 4 weeks
Description: Experiments were also conducted to determine the effect on the expression of genes associated with cholesterol in the liver and intestine. Total RNA was extracted and mRNA was converted to cDNA. The mRNA expression was measured by real-time PCR with four repeats and calculated as relative expression in reference to internal control of a housekeeping gene for each sample. Table 5, FIG. 8b and FIG. 8c summarize the effect of BBRCI and PS on the mRNA expression of CYP7A1 and CYP27A1 in the liver. BBRCI and PS alone tended to increase mRNA expression of both genes. CYP7A1 and CYP27A1 are two rate-limiting enzymes controlling bile acid synthesis, which is one mechanism through which the body removes cholesterol by converting it into bile acids. When BBRCI and PS were combined, a synergistic action appeared to happen.

[2] = tested on: hamsters fed a diet containing 0.25% cholesterol; assay: Example 2: five week hamster study, blood lipid levels, 0.25% cholesterol diet, 1% PS; assay type: in vivo, male Golden Syrian hamsters; details: BBRCI 100 mg/kg·d and/or PS 1% (w/w)
Description: In this example, a controlled, five week animal study was performed. A total of 48 male Golden Syrian hamsters were randomized into 4 groups of 12 and fed isocaloric diets as follows. Hamster husbandry, living and feeding conditions were similar to that used for Example 1. • Control a semi-synthetic casein-corn starch-sucrose diet that contained 0.25% (w/w) cholesterol • BBRCI control diet containing 100 mg/kg·d of BBRCI • PS control diet containing 1% (w/w) PS • BBRCI+PS control diet containing 100 mg/kg·d BBRCI and 1% (w/w) PS One objective of this example was to determine the effects of each intervention on circulating blood lipids including total cholesterol (T-C), high-density-lipoprotein cholesterol (HDL-C), nonHDL-C (which is indicative of LDL-C levels) and triglyceride (TG) profiles when hamsters were fed a diet containing a higher concentration of cholesterol, for example, 0.25% by weight in the diet. Table 6 summarizes the effect on blood lipid levels (values are means±SD, n=12). Data were analyzed by one-way ANOVA followed by Tukey test if significance was detected. A significant difference was indicated by a p<0.05.

[3] = 0.25% cholesterol diet, 5 weeks, means±SD
[4] = 0.25% cholesterol diet, 5 weeks, means±SD, n=12

COc1ccc2cc3[n+](cc2c1OC)CCc1cc2c(cc1-3)OCO2 [BBRCI, Berberine chloride]
ABCG8 mRNA expression (intestinal ABCG8 mRNA): 1.33 ± 0.45^a
nonHDL-C Concentration ([1]; 0.25% cholesterol diet, 5 weeks): 173.5 ± 66.5^ab mg/dl
HDL-C Concentration [1, 3]: 93.1 ± 27.1 mg/dL
T-C Concentration [1, 3]: 264.7 ± 49.8^a mg/dl
TG Concentration [1, 3]: 549.1 ± 225.3^a mg/dl
HDL-C % difference from Control ([1]; Example 3, 5 weeks): 1.7%
HDL-C/nonHDL-C % difference from Control ([1]; Example 3, 5 weeks): 29%
T-C % difference from Control ([1]; Example 3, 5 weeks): −7.8%
TG % difference from Control ([1]; Example 3, 5 weeks): −0.2%
nonHDL-C % difference from Control ([1]; Example 3, 5 weeks): −11.1%
HDL-C/nonHDL-C ([1]; ratio, 0.25% cholesterol diet, 5 weeks): 0.66 ± 0.41^b
CYP7A1 mRNA expression (liver CYP7A1 mRNA): 1.30 ± 0.66
HDL-C Concentration [2, 4]: 93.1 ± 27.1^ab mg/dl
T-C Concentration [2, 4]: 264.7 ± 49.8^a mg/dl
TG Concentration [2, 4]: 549.1 ± 225.3^a mg/dl
nonHDL-C Concentration ([2]; 0.25% cholesterol diet, 5 weeks, n=12): 173.5 ± 66.5^a mg/dl
HDL-C % difference from Control ([2]; Example 2, 5 weeks): 1.7%
HDL-C/nonHDL-C % difference from Control ([2]; Example 2, 5 weeks): 29%
T-C % difference from Control ([2]; Example 2, 5 weeks): −7.8%
TG % difference from Control ([2]; Example 2, 5 weeks): −0.2%
nonHDL-C % difference from Control ([2]; Example 2, 5 weeks): −11.1%
HDL-C/nonHDL-C ([2]; ratio, 0.25% cholesterol diet, 5 weeks, n=12): 0.66 ± 0.41^ab
